The supplement of paper PMC10307832

Tests used:
Experiment in all cases: relative viability (nuclei count vs DMSO), 5 days (fraction); higher = more cells survive
ChaGo-K-1 = system: ChaGo-K-1
How it was run: (§1)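 Cells from lung cancer lines were seeded into 1536-well plates and, one day later, dosed by pin tool. Treatments were either a single drug or a fixed dose of an anchor drug with five library-drug doses (not always all listed) in √10 steps. After 5 days, nuclei were stained in a one-step fixation (final 0.05% Triton X-100, 1% formaldehyde, 1 ug/ml Hoechst) and counted on 4× images, and relative viability is the treated-to-vehicle nuclei ratio, as the median of duplicate plates.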

NCI-H1793 = system: NCI-H1793
How it was run: as §1

LCLC-103H = system: LCLC-103H
How it was run: as §1

NCI-H2170 = system: NCI-H2170
How it was run: as §1

NCI-H460 = system: NCI-H460
How it was run: as §1

HCC-44 = system: HCC-44
How it was run: as §1

NCI-H650 = system: NCI-H650
How it was run: as §1

NCI-H727 = system: NCI-H727
How it was run: as §1

NCI-H2347 = system: NCI-H2347
How it was run: as §1

NCI-H441 = system: NCI-H441
How it was run: as §1

EPLC-272H = system: EPLC-272H
How it was run: as §1

NCI-H2405 = system: NCI-H2405
How it was run: as §1

HOP-62 = system: HOP-62
How it was run: as §1

NCI-H1437 = system: NCI-H1437
How it was run: as §1

NCI-H23 = system: NCI-H23
How it was run: as §1

NCI-H647 = system: NCI-H647
How it was run: as §1

NCI-H2126 = system: NCI-H2126
How it was run: as §1

EMC-BAC-2 = system: EMC-BAC-2
How it was run: as §1

LOU-NH91 = system: LOU-NH91
How it was run: as §1

Cc1cnc(-c2cnc(NCCNc3ccc(C#N)cn3)nc2-c2ccc(Cl)cc2Cl)[nH]1 + NC(=O)Nc1cc(-c2cccc(F)c2)sc1C(=O)N[C@H]1CCCNC1 [AZD7762] (partner 0.2 µM)
relative viability (ChaGo-K-1; first compound 0.08 µM): 0.843
relative viability (ChaGo-K-1; first compound 0.253 µM): 0.754
relative viability (ChaGo-K-1; first compound 0.8 µM): 0.82
relative viability (ChaGo-K-1; first compound 2.53 µM): 0.814
relative viability (NCI-H1793; first compound 0.08 µM): 0.735
relative viability (NCI-H1793; first compound 0.253 µM): 0.379
relative viability (NCI-H1793; first compound 0.8 µM): 0.385
relative viability (NCI-H1793; first compound 2.53 µM): 0.461
relative viability (LCLC-103H; first compound 0.08 µM): 0.86
relative viability (LCLC-103H; first compound 0.253 µM): 0.76
relative viability (LCLC-103H; first compound 0.8 µM): 0.714
relative viability (LCLC-103H; first compound 2.53 µM): 0.757
relative viability (NCI-H2170; first compound 0.08 µM): 1.01
relative viability (NCI-H2170; first compound 0.8 µM): 0.774
relative viability (NCI-H2170; first compound 2.53 µM): 0.695
relative viability (NCI-H460; first compound 0.08 µM): 0.579
relative viability (NCI-H460; first compound 0.8 µM): 0.557
relative viability (NCI-H460; first compound 2.53 µM): 0.541
relative viability (HCC-44; first compound 0.08 µM): 1.05
relative viability (HCC-44; first compound 0.253 µM): 1.02
relative viability (HCC-44; first compound 0.8 µM): 1.06
relative viability (HCC-44; first compound 2.53 µM): 1.15
relative viability (NCI-H650; first compound 0.08 µM): 0.979
relative viability (NCI-H650; first compound 0.253 µM): 0.872
relative viability (NCI-H650; first compound 0.8 µM): 0.892
relative viability (NCI-H650; first compound 2.53 µM): 1.03
relative viability (NCI-H727; first compound 0.08 µM): 0.621
relative viability (NCI-H727; first compound 0.253 µM): 0.547
relative viability (NCI-H727; first compound 0.8 µM): 0.574
relative viability (NCI-H727; first compound 2.53 µM): 0.651
relative viability (NCI-H2347; first compound 0.08 µM): 0.873
relative viability (NCI-H2347; first compound 0.253 µM): 0.612
relative viability (NCI-H2347; first compound 0.8 µM): 0.689
relative viability (NCI-H2347; first compound 2.53 µM): 0.79
relative viability (NCI-H441; first compound 0.08 µM): 1.02
relative viability (NCI-H441; first compound 0.8 µM): 0.967
relative viability (NCI-H441; first compound 2.53 µM): 0.993
relative viability (EPLC-272H; first compound 0.08 µM): 0.36
relative viability (EPLC-272H; first compound 0.253 µM): 0.269
relative viability (EPLC-272H; first compound 0.8 µM): 0.224
relative viability (EPLC-272H; first compound 2.53 µM): 0.202
relative viability (NCI-H2405; first compound 0.08 µM): 0.758
relative viability (NCI-H2405; first compound 0.253 µM): 0.595
relative viability (NCI-H2405; first compound 0.8 µM): 0.744
relative viability (NCI-H2405; first compound 2.53 µM): 0.333
relative viability (HOP-62; first compound 0.08 µM): 0.817
relative viability (HOP-62; first compound 0.253 µM): 0.383
relative viability (HOP-62; first compound 0.8 µM): 0.45
relative viability (HOP-62; first compound 2.53 µM): 0.748
relative viability (NCI-H1437; first compound 0.08 µM): 1.17
relative viability (NCI-H1437; first compound 0.253 µM): 1.06
relative viability (NCI-H1437; first compound 0.8 µM): 1.06
relative viability (NCI-H1437; first compound 2.53 µM): 1.01
relative viability (NCI-H23; first compound 0.08 µM): 0.313
relative viability (NCI-H23; first compound 0.253 µM): 0.16
relative viability (NCI-H23; first compound 0.8 µM): 0.247
relative viability (NCI-H23; first compound 2.53 µM): 0.256
relative viability (NCI-H647; first compound 0.08 µM): 0.439
relative viability (NCI-H647; first compound 0.253 µM): 0.341
relative viability (NCI-H647; first compound 0.8 µM): 0.405
relative viability (NCI-H647; first compound 2.53 µM): 0.364
relative viability (NCI-H2126; first compound 0.08 µM): 1.03
relative viability (NCI-H2126; first compound 0.253 µM): 0.939
relative viability (NCI-H2126; first compound 0.8 µM): 0.984
relative viability (NCI-H2126; first compound 2.53 µM): 1.02
relative viability (EMC-BAC-2; first compound 0.08 µM): 1.24
relative viability (EMC-BAC-2; first compound 0.253 µM): 1.21
relative viability (EMC-BAC-2; first compound 0.8 µM): 1.04
relative viability (EMC-BAC-2; first compound 2.53 µM): 1.01
relative viability (LOU-NH91; first compound 0.08 µM): 0.823
relative viability (LOU-NH91; first compound 0.253 µM): 0.753
relative viability (LOU-NH91; first compound 0.8 µM): 0.768
relative viability (LOU-NH91; first compound 2.53 µM): 0.83
